From US20260248763A1 (BIO GENUINE (SHANGHAI) BIOTECH CO., LTD, priority 2023, published 2026)

Tests used:
V1aR = target: T1, V1aR (Homo sapiens, UniProt P37288); test: Ca2+ mobilization in cells stably expressing V1aR (FLIPR, antagonist mode); assay type: cell-based; conditions: V1a-CHO stably transfected cell line
T1 construct: expressed in transfected cells; host or cells: V1a-CHO stably transfected cell line
Description: Test Example 2. Determination of the Effect of the Compound of the Present Disclosure on Ca^2+ Mobilization in Cells Stably Expressing V1aR
To measure the antagonistic effect of the compound of the present disclosure on V1aR activity expressed in the V1a-CHO stably transfected cell line.
• F-12 (Hyclone, SH30026.01) • FLIPR CALCIUM 6 ASSAY KIT (Molecul Device, R8191) • Fetal Bovine Serum (FBS) (AusGeneX, FBS500-S) • Hygromycin B (Solarbio, H8080-1g) • DMSO (Sigma, D4540) • HBSS (Gibco 14025-092) • Probenecid (MCE, HY—B0545) • 0.36 mL 96 Round V-bottom Deep Well Plates for Laboratory (Biaosen P-0.36-BSA-96) • 384-well conical bottom polypropylene plate (Nunc, 264573) • Corning® 384-well Flat Clear Bottom Black Polystyrene TC-treated Microplates (Corning 3764)
• Biological safety cabinet (ECSO, AC2-6S1-TC) • Carbon dioxide cell incubator (ECSO, CCI-170B-8) • Inverted microscope (Olympus, CKX53) • Microplate low-speed centrifuge (Xiangzhi, TD5B) • FLIPR® Penta (Molecul Device, 5.0)
• 1. Cell plating: V1a-CHO cells were digested and harvested, resuspended and counted, and then inoculated into a 384-well cell plate at a density of: 1.2×10^4 cells/25 μL/well. The cell plate was then incubated in an incubator at 37° C. with 5% CO2 for about 16-20 h. • 2. The next day: after preparing Assay Buffer, 20× Component A was thawed to room temperature, diluted with Assay buffer to 1× loading buffer, and placed at room temperature for later use. • 3. The medium was removed from the cell plate, and 40 μL of 1× loading buffer was quickly added to each well. After centrifugation, the cell plate was incubated at 37° C. in the dark for 120 minutes. • 4. The serially diluted positive compound, serially diluted test compound, and agonist working solution were formulated. After mixing the serially diluted positive compound/serially diluted test compound with the agonist at a 1:1 ratio, 20 μL per well was transferred to a 384-well compound source plate. • 5. The cell plate, agonist source plate, and pipette tips were placed into their respective positions in the FLIPR instrument. Using FLIPR Tetra, 10 μL of the diluted agonist from Step 4 was added to each test well, and the data were collected at a wavelength of 515 nm-575 nm. • 6. The signal values were plotted against the compound concentrations, and the curve fitting and IC50 calculation were performed using the nonlinear regression method of GraphPad Prism software.

OTR = target: T2, OTR (Homo sapiens, UniProt P30559); test: Ca2+ mobilization in cells stably expressing OTR (FLIPR, antagonist mode); assay type: cell-based; conditions: OTR/HEK293 stably transfected cell line
T2 construct: expressed in transfected cells; host or cells: OTR/HEK293 stably transfected cell line
T2 sequence (P30559 1-389): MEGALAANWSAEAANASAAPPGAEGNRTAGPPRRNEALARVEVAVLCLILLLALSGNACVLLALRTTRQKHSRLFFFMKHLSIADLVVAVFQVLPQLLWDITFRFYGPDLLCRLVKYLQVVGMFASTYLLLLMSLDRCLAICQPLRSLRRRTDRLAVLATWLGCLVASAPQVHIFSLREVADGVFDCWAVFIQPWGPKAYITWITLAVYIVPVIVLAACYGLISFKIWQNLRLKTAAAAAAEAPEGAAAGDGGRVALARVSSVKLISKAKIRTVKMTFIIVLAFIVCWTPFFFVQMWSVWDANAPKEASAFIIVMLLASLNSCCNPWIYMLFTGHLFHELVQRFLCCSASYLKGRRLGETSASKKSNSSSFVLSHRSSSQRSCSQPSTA
Summary of the method: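 Antagonist mode: test compounds in 10-point 3-fold series were added on FLIPR to Fluo-4-loaded HEK293 cells stably expressing OTR, followed by reference agonist at its EC80, determined beforehand. The Max-Min calcium fluorescence response was fitted in Prism.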

T1 sequence (P37288 whole entry, species assumed): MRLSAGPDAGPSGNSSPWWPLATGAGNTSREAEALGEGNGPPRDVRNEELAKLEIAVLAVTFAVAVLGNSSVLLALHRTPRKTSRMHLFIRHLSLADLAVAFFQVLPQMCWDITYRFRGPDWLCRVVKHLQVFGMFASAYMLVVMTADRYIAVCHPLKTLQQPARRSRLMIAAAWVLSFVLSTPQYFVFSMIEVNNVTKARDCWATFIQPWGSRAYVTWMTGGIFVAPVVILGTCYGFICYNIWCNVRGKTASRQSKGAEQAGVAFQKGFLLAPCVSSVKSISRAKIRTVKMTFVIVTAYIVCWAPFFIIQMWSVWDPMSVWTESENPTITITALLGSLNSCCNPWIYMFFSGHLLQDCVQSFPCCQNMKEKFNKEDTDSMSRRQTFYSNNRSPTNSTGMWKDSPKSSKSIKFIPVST

SMILES | IC50 (V1aR) | IC50 (OTR)
CO/N=C1/C[C@@H](CO)N(C(=O)c2ccc(-c3cccc(C#N)c3C)cc2C)C1 [Example A0241, 3-(4-[(2S,4Z)-2-(Hydroxymethyl)-4-(methoxyimino)pyrrolidine-1-carbonyl]-3-methylphenyl)-2-methylbenzonitrile] | 6130 nM | 20.3 nM
CO/N=C1/C[C@@H](CO)N(C(=O)c2ccc(-c3cccc(C#N)c3C)c(OC)c2)C1 [Example A0242, (S,Z)-4′-(2-(Hydroxymethyl)-4-(methoxyimino)pyrrolidine-1-carbonyl)-2′-methoxy-2-methyl-[1,1′-biphenyl]-3-carbonitrile] | 1550 nM | 10.8 nM
CO/N=C1/C[C@@H](CO)N(C(=O)c2ccc(-c3cccc(C#N)c3C)cc2OC)C1 [Example A0243] | 7360 nM | 34.1 nM
CO/N=C1/C[C@@H](CO)N(C(=O)c2ccc(-c3cccc(C#N)c3C)c(Cl)c2)C1 [Example A0246, 3-(2-Chloro-4-[(2S,4Z)-2-(hydroxymethyl)-4-(methoxyimino)pyrrolidine-1-carbonyl]phenyl)-2-methylbenzonitrile] | 1850 nM | 24.1 nM
CO/N=C1\CN(C(=O)c2ccc(-c3ccccc3C)cc2)[C@](C)(CO)C1 [Example C0021, (S, Z)-(2-(Hydroxymethyl)-4-(methoxyimino)-2-methylpyrrolidin-1-yl)(2′-methyl-[1,1′-biphenyl]-4-yl)methanone] | 862 nM | 74 nM
CO/N=C1\C[C@@H](CO)N(C(=O)c2ccc(-c3cccc(C)c3C)cc2)C1 [Example C0035, (S,E)-(2′,3′-Dimethyl-[1,1′-biphenyl]-4-yl)(2-(hydroxymethyl)-4-(methoxyimino)pyrrolidin-1-yl)methanone] | 661 nM | 81.2 nM
CO/N=C1/C[C@@H](CO)N(C(=O)c2ccc(-c3cccc(C)c3C)cc2)C1 [Example C0036, (S,Z)-(2′,3′-Dimethyl-[1,1′-biphenyl]-4-yl)(2-(hydroxymethyl)-4-(methoxyimino)pyrrolidin-1-yl)methanone] | 790 nM | 32.1 nM
CO/N=C1/C[C@@H](CO)N(C(=O)c2ccc(-c3cccc(C)c3C)cc2OC)C1 [Example C0038, (S,Z)-(2-(Hydroxymethyl)-4-(methoxyimino)pyrrolidin-1-yl)(3-methoxy-2′,3′-dimethyl-[1,1′-biphenyl]-4-yl)methanone] | 1370 nM | 13.5 nM
CO/N=C1/C[C@@H](CO)N(C(=O)c2cnc(-c3cccc(Cl)c3C)cn2)C1 [Example C0041, (S, Z)-(5-(3-Chloro-2-methylphenyl)pyrazin-2-yl)(2-(hydroxymethyl)-4-(methoxyimino)pyrrolidin-1-yl)methanone] | 1750 nM | 49.3 nM
CO/N=C1/C[C@@H](CO)N(C(=O)c2ccc(-c3ccccc3C)cc2C)C1 [Example C0044, (S, Z)-(2′,3-Dimethyl-[1,1′-biphenyl]-4-yl)(2-(hydroxymethyl)-4-(methoxyimino)pyrrolidin-1-yl)methanone] | 5510 nM | 78.5 nM
CO/N=C1/C[C@@H](CO)N(C(=O)c2ccc(-c3cccc(C)c3C)cc2C)C1 [Example C0045, (S, Z)-(2-(Hydroxymethyl)-4-(methoxyimino)pyrrolidin-1-yl)(3-methyl-2′,3′-dimethyl-[1,1′-biphenyl]-4-yl)methanone] | 3500 nM | 16 nM
CO/N=C1/C[C@@H](CO)N(C(=O)c2ccc(-c3ccccc3C)c(C)c2)C1 [Example C0046, (S, Z)-(2′,2-Dimethyl-[1,1′-biphenyl]-4-yl)(2-(hydroxymethyl)-4-(methoxyimino)pyrrolidin-1-yl)methanone] | 1850 nM | 22.1 nM
CO/N=C1/C[C@@H](CO)N(C(=O)c2ccc(-c3cccc(C)c3C)c(C)c2)C1 [Example C0047, (S, Z)-(2,2′,3′-Trimethyl-[1,1′-biphenyl]-4-yl)(2-(hydroxymethyl)-4-(methoxyimino)pyrrolidin-1-yl)methanone] | 2400 nM | 11.2 nM
CO/N=C1/C[C@@H](CO)N(C(=O)c2ccc(-c3cccc(Cl)c3C)cc2)C1 [Example C0056, (S, Z)-(3′-Chloro-2′-methyl-[1,1′-biphenyl]-4-yl)(2-(hydroxymethyl)-4-(methoxyimino)pyrrolidin-1-yl)methanone] | 2760 nM | 10.2 nM
CO/N=C1/C[C@@H](CO)N(C(=O)c2ccc(-c3cccc(C(F)(F)F)c3C)cc2)C1 [Example C0060, (S,Z)-(2-(Hydroxymethyl)-4-(methoxyimino)pyrrolidin-1-yl)(2′-methyl-3′-(trifluoromethyl)-[1,1′-biphenyl]-4-yl)methanone] | 3210 nM | 17.9 nM
CO/N=C1/C[C@@H](CO)N(C(=O)c2ccc(-c3cccc(C)c3C)c3c2OCO3)C1 [Example C0062, (S, Z)-(7-(2,3-Dimethylphenyl)benzo[d][1,3]dioxol-4-yl)(2-(hydroxymethyl)-4-(methoxyimino)pyrrolidin-1-yl)methanone] | 2740 nM | 10.6 nM
CO/N=C1/C[C@@H](CO)N(C(=O)c2ccc(-c3cccc(C)c3C)c(OC)c2)C1 [Example C0064, (S, Z)-(2-(Hydroxymethyl)-4-(methoxyimino)pyrrolidin-1-yl)(2-methoxy-2′,3′-dimethyl-[1,1′-biphenyl]-4-yl)methanone] | 584 nM | 11 nM
CO/N=C1/C[C@@H](CO)N(C(=O)c2ccc(-c3cccc(OC)c3C)cc2)C1 [Example C0066, (S, Z)-(2-(Hydroxymethyl)-4-(methoxyimino)pyrrolidin-1-yl)(3′-methoxy-2′-methyl-[1,1′-biphenyl]-4-yl)methanone] | 2160 nM | 72.9 nM
CO/N=C1/C[C@@H](CO)N(C(=O)c2ccc(-c3cccc(C)c3C)c(OC)n2)C1 [Example C0073, (S, Z)-(5-(2,3-Dimethylphenyl)-6-methoxypyridin-2-yl)(2-(hydroxymethyl)-4-(methoxyimino)pyrrolidin-1-yl)methanone] | 5030 nM | 42.2 nM
CO/N=C1/C[C@@H](CO)N(C(=O)c2ccc(-c3ccc(C#N)c(C)c3C)cc2)C1 [Example C0075, (S, Z)-4′-(2-(Hydroxymethyl)-4-(methoxyimino)pyrrolidine-1-carbonyl)-2,3-dimethyl-[1,1′-biphenyl]-4-carbonitrile] | 20000 nM | 46.8 nM
CO/N=C1/C[C@@H](CO)N(C(=O)c2ccc(-c3cccc(C(F)F)c3C)cc2)C1 [Example C0079, (S, Z)-(3′-(Difluoromethyl)-2′-methyl-[1,1′-biphenyl]-4-yl)(2-(hydroxymethyl)-4-(methoxyimino)pyrrolidin-1-yl)methanone] | 930 nM | 27.7 nM
CO/N=C1/C[C@@H](CO)N(C(=O)c2ccc(-c3cccc(C)c3C)c3c2CCC3)C1 [Example C0083, (S,Z)-(7-(2,3-Dimethylphenyl)-2,3-dihydro-1H-inden-4-yl)(2-(hydroxymethyl)-4-(methoxyimino)pyrrolidin-1-yl)methanone] | 2920 nM | 11.1 nM
CO/N=C1/C[C@@H](CO)N(C(=O)c2ccc(-c3cccc(C(F)F)c3C)c3c2OCO3)C1 [Example C0118, (S, Z)-(7-(3-(Difluoromethyl)-2-methylphenyl)benzo[d][1,3]dioxolan-4-yl)(2-(hydroxymethyl)-4-(methoxyimino)pyrrolidin-1-yl)methanone] | 1140 nM | 32.9 nM
